Measurements from patent publication EP0434979B1, “Peptide derivatives useful as antagonists of bombesin and gastrin-releasing peptide” (MERRELL DOW PHARMACEUTICALS INC., priority 1989, dated 1991).
Like-named read-outs stand apart in the source and are kept apart here. Values belong to the compound of their own block, whether it stands above or below them. Where a SMILES comes first, the peptide text is derived from it. [ ]: non-standard residue; d: D form. The star is where a group is joined. Pheψ(CH2S)LeuNH2 = CC(C)C[C@H](SC[C@H](Cc1ccccc1)N*)C(N)=O; pGlu = O=C1CC[C@@H](C(=O)O)N1

Assays:
bombesin/GRP receptor [1] = biological target: T1, bombesin/GRP receptor (Mus musculus, UniProt P21729); assay: Competition at the receptor for iodinated GRP (binding to murine pancreatic membranes); set-up: species or system mice
T1 construct: Pancreata from mice were pooled and chopped at 350 µm with a tissue chopper; from tissue; host or cells: chopped mouse pancreas
T1 sequence (P21729 whole entry): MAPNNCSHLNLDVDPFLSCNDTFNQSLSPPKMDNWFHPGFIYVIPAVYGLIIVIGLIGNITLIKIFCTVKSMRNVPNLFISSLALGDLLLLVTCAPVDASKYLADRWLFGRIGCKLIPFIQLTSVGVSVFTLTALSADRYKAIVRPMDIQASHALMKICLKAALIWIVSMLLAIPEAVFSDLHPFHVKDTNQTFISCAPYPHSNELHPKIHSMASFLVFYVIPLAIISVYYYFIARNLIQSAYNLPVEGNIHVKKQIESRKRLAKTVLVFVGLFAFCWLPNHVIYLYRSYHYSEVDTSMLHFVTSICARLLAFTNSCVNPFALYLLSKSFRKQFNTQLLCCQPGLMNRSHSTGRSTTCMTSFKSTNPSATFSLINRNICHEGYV
Protocol: The pancreata from one or more mice were pooled, minced, and homogenized in 50 mM HEPES (pH 7.4) containing 120 mM NaCl and 5 mM KCl at 4°C and centrifuged at 37,500 X g for 15 minutes. The pellet was resuspended in 50 mM HEPES (pH 7.4) containing 10 mM EDTA and 300 mM KCl and incubated for 30 minutes at 4°C. The suspension was centrifuged as above and the pellet was washed two times in 50 mM HEPES (pH 7.4) containing protease inhibitors (10 µM phenylmethylsulfonyl fluoride, 1 µM thiorphan, 40 µg/ml bacitracin, 10mM iodoacetimide and 4 µg/ml leupeptin), and again centrifuged. The tissue was then resuspended in incubation buffer (1ml per 4 mg pancreas) and incubated for 15 minutes at room temperature, then 250 µl was added to each assay tube to commence the assay. […] The assay was allowed to proceed to equilibrium for 90 minutes at room temperature. After this time, the contents of each tube was rapidly filtered over Whatman GF/B filters presoaked in 0.1% polyethyleneimine and the filters were rapidly washed three times with ice-cold 50 mM HEPES (pH 7.4). Filter-bound radioactivity was quantitated in a gamma counter. […] Affinity and maximal binding were calculated with Ligand (Biosoft, Cambridge, UK) (Figure 1 and Figure 2).
Binding was assayed in triplicate using 0.1 […] and the indicated concentrations of peptide. The abscissa (x-axis) logarithmically indicates the concentration of agonists or antagonist of the GRP receptor.

bombesin/GRP receptor [2] = biological target: T1, bombesin/GRP receptor; assay: Phosphatidylinositol (PI) turnover in chopped murine pancreas, alone (agonism) or before GRP (antagonism); assay type: cell-based, mice; set-up: key to PI Turnover Agonist / PI Turnover Antag.: "+" indicates activity; "-" indicates no activity; details: for PI Turnover Antag.: ability to block GRP-stimulated PI turnover, pretreatment with 1 uM potential antagonist; for PI Turnover Antag. / PI Turnover Agonist: murine pancreas; for PI Turnover Agonist: ability to stimulate PI turnover
Protocol: Pancreata from mice were pooled and chopped at 350 µm with a tissue chopper. The chopped tissue was washed twice with Krebs-Hepes buffer, then incubated for 30 minutes in 37°C Krebs-Hepes buffer with fresh buffer after 15 minutes. The tissue was then incubated in this buffer containing 100-200 µCi of ³H-inositol at 37°C for 1 hour. The tissue was then washed twice and incubated for another 30 minutes in Krebs-Hepes buffer (containing 10 mM Li⁺) at 37°C with fresh buffer change after 15 minutes. Portions of the tissue mass (approximately 10 mg per assay tube) were then placed in Li⁺ buffer with protease inhibitors, (40 µg/ml bacitracin,4 µg/ml leupeptin, 4 µg/ml chymostatin, 20 µg/ml thiorphan), 0.1% BSA, and then 0.1-1000 nM peptide was added in 25 µl in a final volume of 250 µl. […] After 60 minutes at room temperature, the phosphatidylinositol turnover was terminated by the addition of 940 µl chloroform:methanol (1:2), followed by 310 µl chloroform, followed by 310 µl water. Each tube was then vortexed for 5 seconds and then centrifuged at 2500 x g for 8 minutes to separate the phases. 900 µl of the top (aqueous) phase was then mixed with 2.1 ml water and loaded onto a 0.5 ml Biorad AG-1X8 (formate) ion exchange column. 50 µl of the bottom phase (chloroform) was withdrawn from each tube and placed in a counting vial, dried, and counted in scintillation fluid. The material on the columns was washed in order with: 1) 10 ml of water 2) 5 ml of 5 mM disodium tetraborate/60 mM sodium formate 3) 10 ml of 1 M ammonium formate in 0.1 M formic acid. The final (third) wash was collected and one ml was mixed with 10 ml of Bio-Safe scintillant and counted. The ratio of these counts (total inositol phosphates) to the corresponding organic phase counts was then calculated for each sample. The ratios in the presence of test compound and/or standards were then compared to the ratios for control tubes (i.e., no stimulating agonist). Dose-response lines were constructed and the abilities of test compounds to stimulate or to inhibit GRP induced phosphatidylinositol turnover were determined by graphical analysis or with the aid of a computer program and are illustrated in Figures 3 and 4.
The abscissa (x-axis) logarithmically indicates the concentration of peptide present. The ordinate (y-axis) indicates the observed PI turnover as a percentage of control. Values are mean ± standard error of triplicate determinations; where not shown, the errors are ≤the size of the data points.
Figure 4 illustrates the ability of (Phe₁₃[CH₂s]Leu₁₄)bombesin to antagonize GRP-induced PI turnover in murine pancreas (Example 2). The abscissa (x-axis) logarithmically indicates the concentration of peptide present. The ordinate (y-axis) indicates the observed PI turnover as a percentage of control. […] Data are the mean ± standard error of triplicate determinations; where not shown, the errors are ≤ the size of the data points.

[3] = Kd (nM), receptor affinity, competition for iodinated GRP binding, murine pancreatic membranes
[4] = LIGAND analysis, 0.1 nM iodinated GRP, triplicate, murine pancreatic membranes (Figure 2), read-out: Kd

SMILES: CC(C)C[C@H](SC[C@H](Cc1ccccc1)NC(=O)[C@H](Cc1c[nH]cn1)NC(=O)CNC(=O)[C@@H](NC(=O)[C@H](C)NC(=O)[C@H](Cc1c[nH]c2ccccc12)NC(=O)[C@H](CCC(N)=O)NC(=O)[C@@H]1CCC(=O)N1)C(C)C)C(N)=O [pQ Q W A V G H FΨCH₂S]L#]
Kd (bombesin/GRP receptor [1]; [3]): 3 nM

SMILES: CC(C)C[C@@H](C(N)=O)[S+]([O-])C[C@H](Cc1ccccc1)NC(=O)[C@H](Cc1c[nH]cn1)NC(=O)CNC(=O)[C@@H](NC(=O)[C@H](C)NC(=O)[C@H](Cc1c[nH]c2ccccc12)NC(=O)[C@H](CCC(N)=O)NC(=O)[C@@H]1CCC(=O)N1)C(C)C (single isomer, unassigned) [pQ Q W A V G H FΨ[CH₂S(O)]^IIL#]
Kd (bombesin/GRP receptor [1]; [3]): 1 nM

SMILES: CCCC[C@H](SC[C@H](Cc1ccccc1)NC(=O)[C@H](Cc1c[nH]cn1)NC(=O)CNC(=O)[C@@H](NC(=O)[C@H](C)NC(=O)[C@H](Cc1c[nH]c2ccccc12)NC(=O)[C@H](CCC(N)=O)NC(=O)[C@@H]1CCC(=O)N1)C(C)C)C(N)=O [pQ Q W A V G H FΨ [CH₂S]Z#, pGlu-Gln-Trp-Ala-Val-Gly- His-Phe Ψ(CH₂S]Nle-NH₂]
Kd (bombesin/GRP receptor [1]; [3]): 4 nM

Kd (bombesin/GRP receptor [1]; [4]): 0.1 nM
SMILES: CC(C)C[C@H](NC(=O)[C@H](Cc1ccccc1)NC(=O)[C@H](Cc1c[nH]cn1)NC(=O)CNC(=O)[C@@H](NC(=O)[C@H](C)NC(=O)[C@H](Cc1c[nH]c2ccccc12)NC(=O)[C@H](CCC(N)=O)NC(=O)[C@H](CC(N)=O)NC(=O)CNC(=O)[C@H](CC(C)C)NC(=O)[C@H](CCCNC(=N)N)NC(=O)[C@H](CCC(N)=O)NC(=O)[C@@H]1CCC(=O)N1)C(C)C)C(N)=O [(Phe₁₃Leu₁₄) bombesin, reference compound] ([pGlu]QRLGNQWAVGHFL-NH2)

SMILES: CC(C)C[C@H](NC(=O)[C@H](CCCNC(=N)N)NC(=O)[C@H](CCC(N)=O)NC(=O)[C@@H]1CCC(=O)N1)C(=O)NCC(=O)N[C@@H](CC(N)=O)C(=O)N[C@@H](CCC(N)=O)C(=O)N[C@@H](Cc1c[nH]c2ccccc12)C(=O)N[C@@H](C)C(=O)N[C@H](C(=O)NCC(=O)N[C@@H](Cc1c[nH]cn1)C(=O)N[C@H](CS[C@@H](CC(C)C)C(N)=O)Cc1ccccc1)C(C)C [pQ Q R L G N Q W A V G H FΨ[CH₂S]L#] ([pGlu]QRLGNQWAVGH-{Pheψ(CH2S)LeuNH2})
Kd (bombesin/GRP receptor [1]; [4]): 3 nM
Kd (bombesin/GRP receptor [1]; receptor affinity, competition for iodinated GRP binding, murine pancreatic membranes, read-out: Kd): 3 nM
stimulation of phosphatidylinositol (PI) turnover (agonist activity) (bombesin/GRP receptor [2]; PI turnover as percentage of control, dose-response, triplicate (Figure 3)): no agonist activity
PI Turnover Antag. (bombesin/GRP receptor [2]): +
PI Turnover Agonist (bombesin/GRP receptor [2]): -
antagonism of GRP-induced PI turnover (bombesin/GRP receptor [2]; preincubation for 30 minutes with 1000 nM peptide, then 1-1000 nM GRP, murine pancreas (Figure 4)): reduces the stimulation of PI turnover

SMILES: CC(C)C[C@@H](C(N)=O)[S+]([O-])C[C@H](Cc1ccccc1)NC(=O)[C@H](Cc1c[nH]cn1)NC(=O)CNC(=O)[C@@H](NC(=O)[C@H](C)NC(=O)[C@H](Cc1c[nH]c2ccccc12)NC(=O)[C@H](CCC(N)=O)NC(=O)[C@@H]1CCC(=O)N1)C(C)C (single isomer, unassigned) [pQ Q W A V G H FΨ[CH₂S(O)]^IL#]
Kd (bombesin/GRP receptor [1]; [3]): 2 nM

PI Turnover Antag. (bombesin/GRP receptor [2]): +
PI Turnover Agonist (bombesin/GRP receptor [2]): -
SMILES: CC(=O)N[C@H](Cc1ccccc1)C(=O)N[C@@H](CCC(N)=O)C(=O)N[C@@H](Cc1c[nH]c2ccccc12)C(=O)N[C@@H](C)C(=O)N[C@H](C(=O)N[C@H](C)C(=O)N[C@@H](Cc1c[nH]cn1)C(=O)N[C@H](CS[C@@H](CC(C)C)C(N)=O)Cc1ccccc1)C(C)C [Acf Q W A V a H FΨ[CH₂S]L#, Ac-D-Phe-Gln-Trp-Ala-Val-D-Ala-His-PheΨ[CH₂S]Leu-NH₂] (Ac-[dF]QWAV[dA]H-{Pheψ(CH2S)LeuNH2})
